What was measured:
P-388 = assay: Effect on prolongation of life span in cancer implanted mouse (P-388); assay type: in vivo, CDF mouse; details: day 1 and day 5, P-388 i.p.; for responders at 50 mg/kg / cure (mice cured / mice in group) / responders at 12.5 mg/kg / responders at 25 mg/kg / responders at 100 mg/kg / responders at 200 mg/kg / responders at 400 mg/kg: 6 mice/group; for responders at 50 mg/kg / responders at 12.5 mg/kg / responders at 25 mg/kg / responders at 100 mg/kg / responders at 200 mg/kg / responders at 400 mg/kg: read-out: cure (mice cured / mice in group) (converted)
Protocol: Animal used: CDF mouse (6 mice/group)
Number of implanted cells: 10^6 cells/mouse
Day of administration: Day 1 and Day 5
Dosage: LD50 or 400 mg/kg/day at the maximum

KB cells = assay: Function for inhibiting multiplication of KB cell (in vitro test); assay type: cell-based, human; details: compound added day 1, cells counted day 4, effective when ED50 < 4 μg/ml, 4320 min
Protocol: KB cells, carcinomatous cell tumors, were transferred to in vitro floatation incubator systems, and added respectively with compounds of Examples 1 to 33. The results of cultivation added with these compounds were compared with the results of the control which was not added with any compound.
Cell used: KB Cell (Originating from human mouth epidermal cancer)
Culture medium: Eagles minimal essential medium (MEM) supplemented with 10% calf serum
Cultivation: 37° C. carbon dioxide gas incubator (5% CO2)
Day 0: KB cells were diluted in the culture medium to adjust the KB cell density to 2×10^4 /ml. Three ml of the cell suspension was inoculated in each of 60 mm plastic dishes. Two dishes per standard dosage were used.
Day 1: Test compound was added to the medium so that the final concentrations were set to 100, 30, 10, 3 and 1 μg/ml.
Day 4: Cells were scraped off from the dish using trypsin, and the cell number was countered using a Corter counter.
In generally accordance with the stipulations set forth by the National Cancer Institute (NCI) U.S.A., the concentration of compound necessary for exerting 50% growth inhibition (ED50) compared to the contral was determined.

[1] = J. Med. Chem. vol.17, 922 (1974); cited from earlier work
[2] = Mus musculus, P388, ip, 50 mg/kg
[3] = Mus musculus, P388, ip, 50 mg/kg, effective when T/C >= 120%, read-out: Ratio of Life Prolongation (%) (T/C %)
[4] = 12.5 mg/kg, effective when T/C >= 120%
[5] = 25 mg/kg, effective when T/C >= 120%
[6] = 50 mg/kg, effective when T/C >= 120%
[7] = Mus musculus, P388, ip, 12.5 mg/kg
[8] = Mus musculus, P388, ip, 25 mg/kg
[9] = Mus musculus, P388, ip, 100 mg/kg
[10] = Mus musculus, P388, ip, 200 mg/kg
[11] = Mus musculus, P388, ip, 400 mg/kg

COc1cc(NS(C)(=O)=O)ccc1Nc1c2ccccc2nc2c1[nH]c1ccc(N)cc12 [Compound 22, 2-amino-6-(4-methanesulfonamide-2-methoxyanilino)indolo[3,2-b]quinoline]
responders at 50 mg/kg (P-388; [2]): 16.7% | response vs control in vivo at 50 mg/kg (P-388; [3]): 242%

COc1cc(NS(C)(=O)=O)ccc1Nc1c2ccccc2nc2c1[nH]c1ccc(NC3OC(COC(C)=O)C(OC(C)=O)C(OC(C)=O)C3OC(C)=O)cc12 (centres unmarked) [Compound 23, N-{4-[(7-(2,3,4,6-tetra-O-acetylglycosyl-1-amino)-10H-indolo[3,2-b]quinoline-11-yl)amino]-3-methoxyphenyl} methanesulfonamide]
Conc. (ED50), concentration necessary for exerting 50% growth inhibition of KB cells (KB cells): < 0.3 µg/mL | cure (mice cured / mice in group) (P-388; 12.5 mg/kg): 2/6 | Ratio of Life Prolongation (%) (T/C %) (P-388; [4]): 300% | cure (mice cured / mice in group) (P-388; 25 mg/kg): 1/6 | Ratio of Life Prolongation (%) (T/C %) (P-388; [5]): 148% | Ratio of Life Prolongation (%) (T/C %) (P-388; [6]): 58%

COc1cc(NS(C)(=O)=O)ccc1Nc1c2ccccc2nc2c1[nH]c1cccc(C)c12 [Compound 16, 6-(4-methanesulfonamide-2-methoxyanilino)-1-mehtylindolo[3,2-b]quinoline]
responders at 12.5 mg/kg (P-388; [7]): 33.3% | responders at 25 mg/kg (P-388; [8]): 33.3%

COc1cc(NS(C)(=O)=O)ccc1Nc1c2ccccc2nc2c1[nH]c1ccc(F)cc12 [Compound 19, 2-fluoro-6-(4-methanesulfonamide-2-methoxyanilino)indolo[3,2-b]quinoline]
responders at 12.5 mg/kg (P-388; [7]): 50% | responders at 25 mg/kg (P-388; [8]): 33.3% | response vs control in vivo at 50 mg/kg (P-388; [3]): 93%

6-(4-methanesulfonamide-anilino)-indeno[3,2-b]quinoline [Compound 5]
Conc. (ED50), concentration necessary for exerting 50% growth inhibition of KB cells (KB cells): < 0.3 µg/mL | Ratio of Life Prolongation (%) (T/C %) (P-388; [5]): 140% | Ratio of Life Prolongation (%) (T/C %) (P-388; [6]): 135% | Ratio of Life Prolongation (%) (T/C %) (P-388; 100 mg/kg, effective when T/C >= 120%): 163% | Ratio of Life Prolongation (%) (T/C %) (P-388; 200 mg/kg, effective when T/C >= 120%): 172% | Ratio of Life Prolongation (%) (T/C %) (P-388; 400 mg/kg, effective when T/C >= 120%): 165%

COc1cc(NS(C)(=O)=O)ccc1Nc1c2ccccc2nc2c1[nH]c1ccc(NS(C)(=O)=O)cc12 [Compound 26, 2-methanesulfonamide-6-(4-methanesulfonamide-2-methoxyanilino)indolo[3,2-b]quinoline]
response vs control in vivo at 50 mg/kg (P-388; [3]): 143%

COc1cc(NS(C)(=O)=O)ccc1Nc1c2cccc(C)c2nc2c1oc1cc(C)ccc12 [Compound 29, 6-(4-methanesulfonamide-2-methoxyanilino)-3,10-dimethylbenzofurano[3,2-b]quinoline]
responders at 100 mg/kg (P-388; [9]): 16.7% | responders at 200 mg/kg (P-388; [10]): 16.7%

COC(=O)Nc1ccc(Nc2c3ccccc3nc3c2[nH]c2ccccc23)c(OC)c1 [Compound 14]
responders at 100 mg/kg (P-388; [9]): 16.7%

COc1cc(OC(C)=O)ccc1Nc1c2ccccc2nc2c1[nH]c1ccccc12 [Compound 21]
responders at 50 mg/kg (P-388; [2]): 16.7% | response vs control in vivo at 100 mg/kg (P-388; Mus musculus, P388, ip, 100 mg/kg, effective when T/C >= 120%, read-out: Ratio of Life Prolongation (%) (T/C %)): 212%

COc1cc(NS(C)(=O)=O)ccc1Nc1c2ccccc2nc2c1[nH]c1ccc(NC3OC(CO)C(O)C(O)C3O)cc12 (centres unmarked) [Compound 24, N-{4-[(7-(glycosyl-1-amino)-10H-indolo[3,2-b]quinoline-11-yl)amino]-3-methoxyphenyl} methanesulfonamide]
Conc. (ED50), concentration necessary for exerting 50% growth inhibition of KB cells (KB cells): < 0.3 µg/mL | cure (mice cured / mice in group) (P-388; 12.5 mg/kg): 2/6 | Ratio of Life Prolongation (%) (T/C %) (P-388; [4]): 213% | Ratio of Life Prolongation (%) (T/C %) (P-388; [5]): 145% | Ratio of Life Prolongation (%) (T/C %) (P-388; [6]): 90%

COc1cc(NS(C)(=O)=O)ccc1Nc1c2c(nc3c(C)cccc13)-c1ccccc1C2 [Compound 2, 6-4-(methanesulfonamide-2-methoxyanilio)-10-methylindeno[3,2-b]quinoline]
responders at 100 mg/kg (P-388; [9]): 16.7%

COc1cc(NS(C)(=O)=O)ccc1Nc1c2ccccc2nc2c1oc1cc(C)ccc12 [Compound 31, 6-(4-methanesulfonamide-2-methoxyanilino)-3-methylbenzofurano[3,2-b]quinoline]
responders at 200 mg/kg (P-388; [10]): 16.7% | responders at 400 mg/kg (P-388; [11]): 16.7%

COc1cc(NS(C)(=O)=O)ccc1Nc1c2ccccc2nc2c1[nH]c1ccc(NC(C)=O)cc12 [Compound 25]
response vs control in vivo at 50 mg/kg (P-388; [3]): 184%

COc1cc(NS(C)(=O)=O)ccc1Nc1c2cccc(C)c2nc2c1oc1cccc(C)c12 [Compound 28, 6-(4-methanesulfonamide-2-methoxyanilino)-1,10-dimethylbenzofurano[3,2-b]quinoline]
response vs control in vivo at 200 mg/kg (P-388; Mus musculus, P388, ip, 200 mg/kg, effective when T/C >= 120%, read-out: Ratio of Life Prolongation (%) (T/C %)): 103%

COc1cc(NS(C)(=O)=O)ccc1Nc1c2cccc(C)c2nc2c1oc1ccccc12 [Compound 27, 6-(4-methanesulfonamide-2-methoxyanilino)-10-methylbenzofurano[3,2-b]quinoline]
responders at 200 mg/kg (P-388; [10]): 16.7% | responders at 400 mg/kg (P-388; [11]): 33.3% | response vs control in vivo at 400 mg/kg (P-388; Mus musculus, P388, ip, 400 mg/kg, effective when T/C >= 120%, read-out: Ratio of Life Prolongation (%) (T/C %)): 310%

COc1cc(NS(C)(=O)=O)ccc1Nc1c2c(nc3c(C)cccc13)-c1c(C)cccc1C2 [Compound 1, 6-4-(methanesulfonamide-2-methoxyanilino)-1,10-dimethylindeno[3,2-b]quinoline]
responders at 100 mg/kg (P-388; [9]): 16.7% | responders at 200 mg/kg (P-388; [10]): 16.7%

CN(C)c1cc(NS(C)(=O)=O)ccc1Nc1c2c(nc3ccccc13)-c1ccccc1C2 [Compound 6, 6-(4-methanesulfonamide-2-dimethylaminoanilino)-indeno[3,2-b]quinoline]
responders at 200 mg/kg (P-388; [10]): 33.3%

COc1cc(NS(C)(=O)=O)ccc1Nc1c2ccccc2nc2ccccc12 [Amsacrine, N-[4-(9-acridylamino)-3-methoxyphenyl)methanesulfonamide]
carcinostatic function [1]: highest carcinostatic function

COc1cc(NS(C)(=O)=O)ccc1Nc1c2ccccc2nc2c1[nH]c1ccc(Cl)cc12 [Compound 12]
responders at 25 mg/kg (P-388; [8]): 16.7% | responders at 50 mg/kg (P-388; [2]): 16.7%

COc1cc(NS(C)(=O)=O)ccc1Nc1c2ccccc2nc2c1[nH]c1ccc([N+](=O)[O-])cc12 [Compound 18, 6-(4-methanesulfonamide-2-methoxyanilino)-2-nitroindolo[3,2-b]quinoline]
responders at 12.5 mg/kg (P-388; [7]): 16.7% | response vs control in vivo at 12.5 mg/kg (P-388; Mus musculus, P388, ip, 12.5 mg/kg, effective when T/C >= 120%, read-out: Ratio of Life Prolongation (%) (T/C %)): 164% | response vs control in vivo at 25 mg/kg (P-388; Mus musculus, P388, ip, 25 mg/kg, effective when T/C >= 120%, read-out: Ratio of Life Prolongation (%) (T/C %)): 131% | response vs control in vivo at 50 mg/kg (P-388; [3]): 70%

COc1cc(NS(C)(=O)=O)ccc1Nc1c2cccc(C)c2nc2c1[nH]c1cc(C)ccc12 [Compound 11, 6-(4-methanesulfonamide-2-methoxyanilino)-3,10-dimethylindolo[3,2-b]quinoline]
responders at 12.5 mg/kg (P-388; [7]): 16.7% | responders at 25 mg/kg (P-388; [8]): 33.3% | responders at 50 mg/kg (P-388; [2]): 16.7%

COc1cc(NS(C)(=O)=O)ccc1Nc1c2cccc(C)c2nc2c1[nH]c1ccccc12 [Compound 9]
responders at 25 mg/kg (P-388; [8]): 16.7% | responders at 50 mg/kg (P-388; [2]): 66.7%

COc1cc(NS(C)(=O)=O)ccc1Nc1c2cccc(C)c2nc2c1[nH]c1cccc(C)c12 [Compound 10, 6-(4-methanesulfonamide-2-methoxyanilino)-1,10-dimethylindolo[3,2-b]quinoline]
responders at 100 mg/kg (P-388; [9]): 16.7%

COc1cc(O)ccc1Nc1c2ccccc2nc2c1[nH]c1ccccc12 [Compound 20]
responders at 25 mg/kg (P-388; [8]): 16.7% | response vs control in vivo at 50 mg/kg (P-388; [3]): 202%

COc1cc(NC(C)=O)ccc1Nc1c2ccccc2nc2c1[nH]c1ccccc12 [Compound 15]
responders at 100 mg/kg (P-388; [9]): 16.7%

COc1cc(NS(C)(=O)=O)ccc1Nc1c2ccccc2nc2c1sc1cccc(C)c12 [Compound 33, 6-(4-methanesulfonamide-2-methoxyanilino)-1-methylbenzothieno[3,2-b]quinoline]
responders at 200 mg/kg (P-388; [10]): 16.7% | responders at 400 mg/kg (P-388; [11]): 16.7%

Reference: US5217961A, “Condensed quinoline system N-glycosides” (Mect Corporation, priority 1988, dated 1993)
